In patent US12441726B2, “Compounds and uses thereof” (Foghorn Therapeutics Inc., priority 2020, dated 2025):

Experiments:
BRM = BRM (Homo sapiens, UniProt P51531); assay: ATPase catalytic activity assay (ADP-Glo), BRM; conditions: 30 nM BRM, 400 μM ATP; for IC50: BRM ATPase: IC50 (uM)
BRG-1 = BRG-1 (Homo sapiens, UniProt P51532); assay: ATPase catalytic activity assay (ADP-Glo), BRG-1; conditions: for Emax: 1 h, read-out: BRG1 Max % Inhibition, ADP-Glo, 30 nM BRG-1, 400 μM ATP
BRG-1, sequence (P51532 whole entry): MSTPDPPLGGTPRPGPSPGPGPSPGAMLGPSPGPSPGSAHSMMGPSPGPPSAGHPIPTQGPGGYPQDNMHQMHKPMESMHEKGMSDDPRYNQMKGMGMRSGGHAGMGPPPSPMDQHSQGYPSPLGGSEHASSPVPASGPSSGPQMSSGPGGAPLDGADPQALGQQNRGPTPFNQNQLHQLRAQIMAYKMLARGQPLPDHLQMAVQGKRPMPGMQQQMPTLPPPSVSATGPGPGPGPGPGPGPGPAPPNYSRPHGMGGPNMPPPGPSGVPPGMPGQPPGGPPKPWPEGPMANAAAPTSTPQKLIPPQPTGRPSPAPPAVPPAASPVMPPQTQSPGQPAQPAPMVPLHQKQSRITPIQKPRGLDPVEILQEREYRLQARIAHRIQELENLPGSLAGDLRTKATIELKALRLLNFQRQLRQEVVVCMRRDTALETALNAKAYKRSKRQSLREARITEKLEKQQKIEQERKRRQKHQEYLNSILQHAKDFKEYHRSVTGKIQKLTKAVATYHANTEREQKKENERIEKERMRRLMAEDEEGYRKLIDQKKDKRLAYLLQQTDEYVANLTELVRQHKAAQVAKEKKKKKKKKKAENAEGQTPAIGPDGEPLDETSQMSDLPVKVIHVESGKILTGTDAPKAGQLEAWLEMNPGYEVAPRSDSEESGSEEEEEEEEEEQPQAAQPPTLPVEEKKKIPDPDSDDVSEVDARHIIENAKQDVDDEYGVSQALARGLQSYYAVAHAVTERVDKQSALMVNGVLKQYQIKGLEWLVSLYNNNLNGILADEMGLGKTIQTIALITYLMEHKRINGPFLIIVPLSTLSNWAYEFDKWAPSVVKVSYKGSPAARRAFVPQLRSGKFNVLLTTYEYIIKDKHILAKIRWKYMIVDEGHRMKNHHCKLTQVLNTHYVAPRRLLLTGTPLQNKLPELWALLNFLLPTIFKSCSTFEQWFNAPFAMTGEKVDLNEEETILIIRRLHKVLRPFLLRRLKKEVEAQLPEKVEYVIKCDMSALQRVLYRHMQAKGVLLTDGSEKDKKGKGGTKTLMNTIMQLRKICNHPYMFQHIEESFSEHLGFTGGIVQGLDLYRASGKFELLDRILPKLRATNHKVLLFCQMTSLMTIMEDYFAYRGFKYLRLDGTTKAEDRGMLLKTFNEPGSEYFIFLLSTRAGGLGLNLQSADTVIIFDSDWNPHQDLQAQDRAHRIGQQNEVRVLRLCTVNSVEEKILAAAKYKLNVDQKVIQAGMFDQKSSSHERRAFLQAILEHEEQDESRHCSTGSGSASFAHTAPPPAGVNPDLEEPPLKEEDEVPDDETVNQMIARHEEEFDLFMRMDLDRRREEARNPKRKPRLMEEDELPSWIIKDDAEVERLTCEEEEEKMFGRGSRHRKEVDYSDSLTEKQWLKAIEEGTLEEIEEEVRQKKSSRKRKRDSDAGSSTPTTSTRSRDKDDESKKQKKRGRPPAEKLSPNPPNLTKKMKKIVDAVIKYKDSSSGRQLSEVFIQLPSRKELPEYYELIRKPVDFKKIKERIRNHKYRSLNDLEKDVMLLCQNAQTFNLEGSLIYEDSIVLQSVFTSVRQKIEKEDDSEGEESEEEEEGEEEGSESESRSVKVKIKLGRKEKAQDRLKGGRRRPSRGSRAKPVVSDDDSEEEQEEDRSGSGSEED

BRM, sequence (P51531 whole entry): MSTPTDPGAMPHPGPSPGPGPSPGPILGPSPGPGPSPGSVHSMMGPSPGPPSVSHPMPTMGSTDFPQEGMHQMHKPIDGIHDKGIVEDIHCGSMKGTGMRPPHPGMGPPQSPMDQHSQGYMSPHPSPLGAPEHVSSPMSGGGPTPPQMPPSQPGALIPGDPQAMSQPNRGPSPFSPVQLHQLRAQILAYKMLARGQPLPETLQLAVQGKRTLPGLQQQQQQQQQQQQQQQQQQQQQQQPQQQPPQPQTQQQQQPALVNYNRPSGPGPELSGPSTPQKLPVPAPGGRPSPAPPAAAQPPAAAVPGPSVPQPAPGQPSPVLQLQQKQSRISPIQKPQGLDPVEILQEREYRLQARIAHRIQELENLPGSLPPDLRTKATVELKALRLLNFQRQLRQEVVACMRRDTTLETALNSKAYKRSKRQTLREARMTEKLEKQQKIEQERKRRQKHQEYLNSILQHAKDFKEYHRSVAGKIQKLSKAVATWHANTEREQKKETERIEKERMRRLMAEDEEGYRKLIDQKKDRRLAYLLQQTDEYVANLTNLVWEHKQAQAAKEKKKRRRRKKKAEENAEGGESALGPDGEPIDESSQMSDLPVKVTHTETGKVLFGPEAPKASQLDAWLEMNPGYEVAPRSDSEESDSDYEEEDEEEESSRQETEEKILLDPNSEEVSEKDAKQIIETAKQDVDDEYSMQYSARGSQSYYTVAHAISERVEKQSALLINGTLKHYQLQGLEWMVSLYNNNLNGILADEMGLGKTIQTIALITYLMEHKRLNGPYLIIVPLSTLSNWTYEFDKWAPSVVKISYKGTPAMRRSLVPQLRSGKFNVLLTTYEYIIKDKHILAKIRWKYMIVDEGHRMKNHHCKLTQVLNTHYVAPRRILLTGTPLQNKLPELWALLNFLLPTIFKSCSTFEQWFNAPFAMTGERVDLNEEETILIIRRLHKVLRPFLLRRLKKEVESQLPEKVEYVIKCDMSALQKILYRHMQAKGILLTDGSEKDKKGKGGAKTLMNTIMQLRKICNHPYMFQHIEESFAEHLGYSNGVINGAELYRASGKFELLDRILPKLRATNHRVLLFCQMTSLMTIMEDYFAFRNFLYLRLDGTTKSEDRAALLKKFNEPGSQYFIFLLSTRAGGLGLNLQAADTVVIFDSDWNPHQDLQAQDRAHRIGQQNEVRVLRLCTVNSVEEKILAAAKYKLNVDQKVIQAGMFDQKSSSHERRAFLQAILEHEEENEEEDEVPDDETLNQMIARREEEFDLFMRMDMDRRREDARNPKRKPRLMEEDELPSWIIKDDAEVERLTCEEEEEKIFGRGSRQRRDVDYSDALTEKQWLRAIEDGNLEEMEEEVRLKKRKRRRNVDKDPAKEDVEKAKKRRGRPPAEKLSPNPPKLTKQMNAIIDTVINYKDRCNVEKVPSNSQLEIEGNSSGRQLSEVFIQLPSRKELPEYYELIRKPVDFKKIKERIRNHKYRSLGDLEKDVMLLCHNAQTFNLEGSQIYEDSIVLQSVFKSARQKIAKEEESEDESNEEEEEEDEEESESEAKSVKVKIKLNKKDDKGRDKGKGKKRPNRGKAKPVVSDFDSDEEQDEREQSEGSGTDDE

BRM Max % Inhibition (BRM) [%] | IC50 (BRM) [µM] | IC50 (BRG-1) [nM] | Emax (BRG-1) [%] | Structure (SMILES)
94 | 0.1 to 0.5 | > 1000 | 51 | C[C@@]1(C#N)COCc2ccc(C(=O)NCc3nccc(C#Cc4ccccc4)c3F)cc21 [Compound 16]
94 | 0.1 to 0.5 | > 1000 | 58 | C[C@@]1(C#N)COCc2ccc(C(=O)NCc3cc(C#Cc4cccc(C(F)F)c4)ccn3)cc21 [Compound 17]
93 | < 0.1 | > 1000 | 87 | C[C@@]1(C#N)COCc2ccc(C(=O)NCc3cc([C@H]4C[C@H](c5ccccc5)C4)ccn3)cc21 [Compound 18]
97 | 0.1 to 0.5 | 500 to 1000 | 89 | C[C@@]1(C#N)COCc2ccc(C(=O)NCc3cc([C@H]4C[C@@H](c5ccccc5)C4)ccn3)cc21 [Compound 19]
83 | 0.5 to 1 | > 1000 | 41 | C[C@@]1(C#N)COCc2ccc(C(=O)NCc3cc(C#Cc4ccccc4)c(F)cn3)cc21 [Compound 20]
78 | > 1 | > 1000 | 31 | COC(=O)N1CCC(C#Cc2ccnc(CNC(=O)c3ccc4c(c3)[C@](C)(C#N)COC4)c2)CC1 [Compound 21]
70 | > 1 | > 1000 | 31 | COC(=O)N1CCC(C#Cc2ccnc(CNC(=O)c3ccc4c(c3)[C@](C)(C#N)COC4)c2)C1 (stereo partly drawn) [Compound 22]
85 | 0.5 to 1 | > 1000 | 35 | COC(=O)c1cccc(C#Cc2ccnc(CNC(=O)c3ccc4c(c3)[C@](C)(O)COC4)c2)c1 [Compound 23]
94 | 0.1 to 0.5 | > 1000 | 65 | COC(=O)c1cccc(C#Cc2ccnc(CNC(=O)c3ccc4c(c3)[C@](C)(C#N)CCO4)c2)c1 [Compound 24]
94 | 0.1 to 0.5 | > 1000 | 68 | C[C@@]1(C#N)COCc2ccc(C(=O)NCc3cc(CCc4ccccc4)ccn3)cc21 [Compound 25]
100 | < 0.1 | 100 to 500 | 90 | COC(=O)c1cccc(/C=C/c2ccnc(CNC(=O)c3ccc4c(c3)[C@](C)(C#N)COC4)c2)c1 [Compound 26]
97 | 0.1 to 0.5 | > 1000 | 62 | C[C@@]1(C#N)COCc2ccc(C(=O)NCc3cc(/C(F)=C/c4ccccc4)ccn3)cc21 [Compound 27]
98 | < 0.1 | 500 to 1000 | 86 | C[C@@]1(C#N)COCc2ccc(C(=O)NCc3cc(N4CCc5ccccc5C4)ccn3)cc21 [Compound 28]
98 | 0.1 to 0.5 | > 1000 | 69 | C[C@@]1(C#N)COCc2ccc(C(=O)NCc3cc(/C=C(\F)c4ccccc4)ccn3)cc21 [Compound 29]
92 | 0.1 to 0.5 | > 1000 | 35 | C[C@@]1(C#N)COCc2ccc(C(=O)NCc3cc(C4CN(c5ccccc5)C4)ccn3)cc21 [Compound 30]
96 | 0.1 to 0.5 | > 1000 | 73 | C[C@@]1(C#N)COCc2ccc(C(=O)NCc3cc(N4Cc5ccccc5C4)ccn3)cc21 [Compound 31]
89 | > 1 | > 1000 | 55 | C[C@@]1(C#N)COCc2ccc(C(=O)NCc3cc(N4CC(c5ccccc5)C4)ccn3)cc21 [Compound 32]
98 | 0.1 to 0.5 | > 1000 | 78 | C[C@@]1(C#N)COCc2ccc(C(=O)NCc3nccc(/C=C/c4ccccc4)c3F)cc21 [Compound 33]

Second part, the molecule before the results:

Structure (SMILES) | BRM Max % Inhibition (BRM) [%] | IC50 (BRM) [µM] | IC50 (BRG-1) [nM] | Emax (BRG-1) [%]
C[C@@]1(C#N)COCc2ccc(C(=O)NCc3cc(C#Cc4ccccc4)ccn3)cc21 [Compound 1] | 90 | 0.1 to 0.5 | > 1000 | 56
COc1cccc(C#Cc2ccnc(CNC(=O)c3ccc4c(c3)[C@](C)(C#N)COC4)c2)c1 [Compound 2] | 96 | 0.1 to 0.5 | > 1000 | 65
COC(=O)c1cccc(C#Cc2ccnc(CNC(=O)c3ccc4c(c3)[C@](C)(C#N)COC4)c2)c1 [Compound 3] | 99 | < 0.1 | > 1000 | 78
C[C@@]1(C#N)COCc2ccc(C(=O)NCc3cc(/C=C/c4ccccc4)ccn3)cc21 [Compound 4] | 97 | 0.1 to 0.5 | > 1000 | 74
COC(=O)N1CCCC(C#Cc2ccnc(CNC(=O)c3ccc4c(c3)[C@](C)(C#N)COC4)c2)C1 (stereo partly drawn) [Compound 5] | 64 | > 1 | > 1000 | 12
C[C@@]1(C#N)COCc2ccc(C(=O)NCc3cc(OCc4ccccc4)ccn3)cc21 [Compound 6] | 95 | 0.1 to 0.5 | > 1000 | 44
C[C@@]1(C#N)COCc2ccc(C(=O)NCc3cc([C@H]4C[C@@H]4c4ccccc4)ccn3)cc21 [Compound 7] | 81 | > 1 | > 1000 | 12
C[C@@]1(C#N)COCc2ccc(C(=O)NCc3cc([C@@H]4C[C@H]4c4ccccc4)ccn3)cc21 [Compound 8] | 73 | > 1 | > 1000 | 9
C[C@@]1(C#N)COCc2ccc(C(=O)NCc3cc(/C(F)=C(\F)c4ccccc4)ccn3)cc21 [Compound 9] | 95 | 0.1 to 0.5 | > 1000 | 56
C[C@@]1(C#N)COCc2ccc(C(=O)NCc3cc(N4CC5(CN(c6ccccc6)C5)C4)ccn3)cc21 [Compound 10] | 71 | > 1 | > 1000 | 30
C[C@@]1(C#N)COCc2ccc(C(=O)NCc3cc(N4CCC5(C4)CN(c4ccccc4)C5)ccn3)cc21 [Compound 11] | 82 | > 1 | > 1000 | 26
C[C@@]1(C#N)COCc2ccc(C(=O)NCc3cc(N4CC5(CCN(c6ccccc6)C5)C4)ccn3)cc21 [Compound 12] | 79 | > 1 | > 1000 | 22
O=C(NCc1cc(C#Cc2ccccc2)ccn1)c1cccc(C2(C(F)F)COC2)c1 [Compound 13] | 84 | > 1 | > 1000 | 44
C[C@@]1(F)COCc2ccc(C(=O)NCc3cc(C#Cc4ccccc4)ccn3)cc21 [Compound 14] | 94 | 0.5 to 1 | > 1000 | 64
Cc1cnc(CNC(=O)c2ccc3c(c2)[C@](C)(C#N)COC3)cc1C#Cc1ccccc1 [Compound 15] | 94 | 0.5 to 1 | > 1000 | 64
